This data set relates to IFN β-production. The settings on record: soluble, unformulated form.

Structures are written as SMILES.

Experimental: (FIG. 3A) Bioluminescence images of luciferase reporter mice (IFβ+/Δβ-luc); images taken 4, 24 and 48 h post footpad injection of IMDQ-PEG-CHOL, IMDQ-PEG and native IMDQ.
In vivo immune activation imaging. Luciferase reporter mice (IFNβ+/Δβ-luc) with a BALB/c background, aged 7-9 weeks, were housed in individual ventilated cages and given ad libitum access to food and water. 20 mL of IMDQ-PEG-CHOL, IMDQ-PEG or IMDQ were injected subcutaneously in the footpad (n=3) at an equivalent INDQ dose of 2 mg. For in vivo imaging at the given time points, mice were injected subcutaneously with 200 μL D-luciferin and in vivo luminescence imaging was recorded 12 min later using the IVIS Lumina II imaging system. Local (DLN and DLN+foot pad) luminescence and full-body luminescence were quantified using the Living Image 4.4 software.

`CCCCc1nc2c(N)nc3ccccc3c2n1Cc1ccc(CN)cc1` [IMDQ, 1-(4-(aminomethyl)benzyl)-2-butyl-1H-imidazo[4,5-c]quinolin-4-amine]: the “entry into systemic circulation upon local administration” value is given as “rapidly enters systemic circulation”.

Values taken from patent publication US12552788B2 (priority 2020, dated 2026).
